The results in this text go back to paper PMC4138991, “Building a Better Dynasore: The Dyngo Compounds Potently Inhibit Dynamin and Endocytosis” (Traffic (Copenhagen, Denmark), 2013).

Read-outs that look alike come from different tables or passages of the source.

Series [1] relates to Tfn-A594 uptake in U2OS cells. In words: Automated quantitative CME assay: Tfn-A594 uptake. The class given is cell-based. The conditions noted are these: for recovery of normal non-neuronal CME after wash out: 10 μM for 30 min; for fold less potent CME inhibition in presence of serum protein: 5 or 10% FBS or 1% BSA versus none; for IC50: Homo sapiens. How it is done:
To determine whether the Dyngo compounds are widespread cell‐permeable and endocytosis inhibitors, CME of fluorescent Tfn was compared in an automated quantitative endocytosis assay in U2OS cells. The assay consisted of over 1200 cells under serum‐free conditions; after preincubation with each analog for 30 min the uptake of fluorescent Tfn was measured. We refer to this endocytosis as non‐neuronal CME to distinguish it from CME of synaptic vesicles in presynaptic terminals of neurons, which is referred to as synaptic vesicle endocytosis (SVE). In these cells, Tfn uptake is presumed to be mediated by dynamin II, because this is the only isoform of dynamin that they express, as determined by western blot (Figure S6). […] There was no apparent correlation between in vitro and in‐cell activity, with potent dynamin‐active compounds like 1a and 14a having no effect on non‐neuronal CME (Table 1). This might be explained by low membrane permeability of these analogs, their cellular metabolism or rapid cellular efflux mechanisms.
Quantitative analysis of the inhibition of Alexa 594‐Tfn endocytosis in U2OS cells was performed on large numbers of serum‐starved cells as described 10. Synaptic vesicle recycling in cultured CGNs was monitored using FM1‐43 as described 57 (see Supporting Information). Dynamin‐independent endocytosis was measured using internalization of CT in NIH3T3 cells (using Tfn as a control) as described previously 58 with minor changes (see Supporting Information). The average number of cells for each data point was ˜1200. IC50 values were calculated using GraphPad Prism 5 and data were expressed as mean ± 95% confidence interval (CI) for three wells and ˜1200 cells.

Series [2] deals with T1, AP-2 alpha ear binding to amphiphysin 1 (Mus musculus, UniProt P17427).
T1 construct: GST-AP-2 α-appendage (amino acids 702–938); made in house; host or cells: bacteria
T1 sequence (P17427 702-938): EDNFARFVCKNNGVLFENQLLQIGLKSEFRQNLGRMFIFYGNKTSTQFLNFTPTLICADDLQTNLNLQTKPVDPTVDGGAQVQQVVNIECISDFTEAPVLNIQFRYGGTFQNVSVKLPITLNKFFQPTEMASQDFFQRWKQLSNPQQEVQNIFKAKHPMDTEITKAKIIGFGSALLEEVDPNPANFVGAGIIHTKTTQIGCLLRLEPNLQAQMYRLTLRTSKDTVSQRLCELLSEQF
The series can be described thus: ELISA-based AP-2 binding assay. Here is the method:
The assay for the interaction of amphiphysin with either clathrin or AP2 was based on our previous report (11). Bacterially expressed recombinant purified His6-tagged amphiphysin 1 PRD+CLAP domains (amino acids 250-578) in screening buffer (20 mM HEPES, pH 7.4, 50 mM NaCl, 1 mM DTT, 1 mM PMSF) was added to a 384 well ELISA plate (high-binding PS Microplate, Greiner Bio-One) and bound to the plastic at room temperature for 1 hr. Non-specific binding was reduced by overnight incubation with 50 µL blocking buffer (20 mM HEPES, pH 7.4, 50 mM NaCl, 1 mM PMSF, 2 % BSA, 2.5 % skim milk) at 4 °C. Following extensive washes (with 20 mM HEPES, pH 7.4, 50 mM NaCl, 0.05 % Tween 20), chemical compounds diluted in DMSO (10 µL) were added and incubated together with bacterially expressed recombinant GST-tagged clathrin heavy chain TD (amino acids 1-364) or GST-AP-2 α-appendage (amino acids 702–938) for 1 hr at room temperature in screening buffer. This incubation was in the presence of test compounds diluted in 1% DMSO or 1% DMSO alone as a control. After 3 washes, horseradish peroxidase-coupled anti-GST antibodies were added in screening buffer and the plate incubated for 15 min at room temperature. Following additional washes, 50 µL TMB (3,3′,5,5′-tetramethylbenzidine) (Pierce Biotechnology) chromogenic substrate of horseradish peroxidase was added and the plate was incubated for 20 min before the reaction was terminated by adding 50 µL 1 N sulfuric acid to produce a yellow colour. The amount of bound protein was determined by spectrophotometric measurement in a plate reader in triplicates. Relative binding was calculated as a percentage of the DMSO control.
Background: An ELISA detects its analyte on a solid surface through an enzyme-linked reagent.

The subject of series [3] is mitochondria in HeLa cells. The series can be described thus: Mitotracker labeling of mitochondria, live confocal imaging. The series is classed as cell-based. The conditions noted are these: 30 μM 4a, 30 μM 6a or 100 μM dynasore, 30 min. The source says: Dynasore was originally reported to inhibit the GTPase activity of dynamin‐like protein 1 (Dlp‐1), which is involved in mitochondrial fission. This raises the possibility that dynasore and the Dyngo compounds may affect mitochondrial morphology and/or dynamics in cells. We investigated this by labeling mitochondria in live HeLa cells using Mitotracker Green FM and imaging the cells over time using confocal microscopy. These cells stably expressed an mCherry‐conjugated form of the nuclear histone protein H2B, providing contrast to the green mitochondria.
HeLa cells were used that had been stably transduced to express H2B-mCherry. Cells were cultured at 37 °C, 5% CO2 in RPMI medium with 10% FBS. Expression of the transgene was maintained by puromycin selection. The day before imaging, cells were seeded on 4-chambered, glass bottomed 35 mm round dish at a density of 1 x 10^5 cells per chamber. The next day, cells were washed 4x in PBS and then incubated either in RPMI + 10% FBS or RPMI alone for 4 h. Medium was then removed and replaced with Mitotracker green-FM (150 nM) diluted in Hank’s buffered salt solution. Cells were incubated in Mitotracker for 20 min and then returned to RPMI either with or without serum. Cells were then imaged in a Yokugawa CV1000 Cell Voyager live cell confocal system prior to the application of compounds. Compounds were then applied: control samples received 1% DMSO, while test samples received 4a, 6a or dynasore (final DMSO concentration of 1%). Cells were incubated for at 37 °C, 5% CO2 and then images acquired over 2 h at 6 min intervals. 6 images were taken of each test condition.

[4] abbreviates: then wash out up to 1 h / 60 min.
[5] abbreviates: Tfn-A594 uptake, U2OS, 30-min preincubation, serum-free, read-out: CME IC50.
[6] abbreviates: U2OS, 1 h incubation, 0.1% BSA, read-out: CME IC50, 0.1% BSA.
The mark [7] stands for this setting: U2OS, 1 h incubation, 1% BSA, read-out: CME IC50, 1% BSA.
The mark [8] stands for this setting: U2OS, 1 h incubation, 1% FBS, read-out: CME IC50, 1% FBS.
Setting [9] is: U2OS, 1 h incubation, 5% FBS, read-out: CME IC50, 5% FBS.
The mark [10] stands for this setting: U2OS, 1 h incubation, 10% FBS, read-out: CME IC50, 10% FBS.
Where [11] appears, read: U2OS, 1 h incubation, absence of FBS or BSA, read-out: CME IC50, 1 h.

Consider `O=C(N/N=C/c1cc(O)c(O)cc1O)c1cc2ccccc2cc1O` [4a, (E)-3-Hydroxy-N'-(2,4,5-trihydroxybenzylidene) -2-naphthohydrazide], for which the “recovery of normal non-neuronal CME after wash out” value in series [1] (then 10 min after removal) is recorded as 70%; in series [1] (setting [4]), “over 80%”. In addition, the “fold less potent CME inhibition in presence of serum protein” value in series [1] is “at least 20 fold”. Besides, the IC50 stood at 5.7 ± 1 µM in series [1] (setting [5]); 44 µM in series [1] (setting [6]); 83 ± 12 µM in series [1] (setting [7]); 23.7 ± 3.2 µM in series [1] (setting [8]); 102 µM in series [1] (setting [9]); 115 ± 7.5 µM in series [1] (setting [10]). Further, the IC50 in series [1] (setting [11]) amounted to 6.3 ± 3.6 µM; in series [2] (ELISA, n = 1 in triplicate), 362 µM. The “preincubation time required for complete abolition of Tfn uptake” value in series [1] (U2OS, 10 μM) was determined as 30 min. The “shortest preincubation at which inhibition of CME was observed” value in series [1] (U2OS, 10 μM) was 5 min. Also, the “times less potent on AP-2 binding than for dynamin I inhibition” value in series [2] was around 1000 times. For the same molecule, the mitochondrial morphology result in series [3] is listed as “did not mediate any changes in mitochondrial morphology”.

Regarding `O=C(N/N=C/c1cccc(O)c1O)c1cc2ccccc2cc1O` [6a, (E)-N'-(2,3-Dihydroxybenzylidene)-3-hydroxy-2-naphthohydrazide], the “recovery of normal non-neuronal CME after wash out” value in series [1] (setting [4]) was 70%. In series [1], the “fold less potent CME inhibition in presence of serum protein” value was “at least 20 fold”. The IC50 in series [1] (setting [5]) is 5.8 ± 0.8 µM; in series [1] (setting [6]) it was 46 µM; in series [1] (setting [7]) it was 281 µM; in series [1] (setting [8]) it was 16.5 µM; in series [1] (setting [9]), 78 ± 7 µM; in series [1] (setting [10]), 108 ± 15 µM. For the same molecule, the half-maximal inhibitory concentration (IC50) in series [1] (setting [11]) worked out at 3.3 ± 0.6 µM. For the same molecule, the “times more potent than dynasore in CME assay” value in series [1] (same conditions, U2OS Tfn uptake) is given as “six times more potent”. The “IC50 AP-2 alpha ear binding to amphiphysin 1” value in series [2] (ELISA, n = 1 in triplicate) is on record as “no effect”. Besides, the mitochondrial morphology entry in series [3] is “appeared to cause mitochondrial fragmentation”.

`O=C(N/N=C/c1ccc(O)c(O)c1)c1cc2ccccc2cc1O` [Dynasore, (E)-N'-(3,4-Dihydroxybenzylidene)-3-hydroxy-2-naphthohydrazide]: the IC50 in series [1] (setting [5]) came out at 34.7 ± 5.1 µM; in series [1] (setting [6]) it was 277 µM; in series [1] (setting [7]), 235 µM; in series [1] (setting [8]), 57.8 µM; in series [1] (setting [9]) it was 650 µM; in series [1] (setting [10]), 532 µM. The IC50 in series [1] (setting [11]) worked out at 22.2 ± 6 µM. Moreover, the “IC50 AP-2 alpha ear binding to amphiphysin 1” value in series [2] (ELISA, n = 1 in triplicate) is listed as “no effect”. Further, the mitochondrial morphology result in series [3] was “did not mediate any changes in mitochondrial morphology”.

In general, IC50 refers to the point on the concentration scale where inhibition reaches its midpoint.
